Where two headings read alike, the source gives them in different places.
Experiments:
[1] = target: T1, CB1 (Homo sapiens, UniProt P21554); assay: Radioligand displacement assay on CB1 receptor; assay type: binding
T1 construct: purchased Perkin Elmer RBHCB1M

[2] = system: Anandamide transport; assay: Anandamide transport (human) cellular functional assay (assay F); assay type: cell-based; conditions: human U-937 cells, 0.1 µM [3H]-Anandamide, 20 min (assay F)
Experimental: Anandamide transport is determined using human U-937 cells as receptor source. [3H]-Anandamide (0.1 Ci/mmol), final concentration 0.1 µM is used as substrate. AM-404 is used as reference compound. Reactions are carried out in KRH buffer (pH 7.4) at 37°C for 20 min. The reaction is terminated by rapid vacuum filtration onto glass fiber filters. Radioactivity trapped onto filters is determined and compared to control values in order to ascertain any interactions of test compound with anandamide uptake (Hiiliard C.J. The movement of N-arachidonylethanolamide (anandamide) across cellular membranes. Chem. Physics Lipids. 2008;108:123-134, with modifications).

[3] = system: NO2^- production; assay: NO2- production in LPS-stimulated human macrophages (Griess reagent); assay type: cell-based; conditions: Figure 5; LPS 500 ng/ml; 5 µM for 18 h
Experimental: • Figure 1: AEA re-uptake inhibition of 2E,4E-dieneamides 1 and 9 into human primary monocytes and U937 cells. […] Data are mean values ± SEM of 3 independent experiments in a sigmoidal dose-response curve. • Figure 2: Concentration-dependent effects of 4 and 5 on FAAH activity. […] The maximal inhibition (32%) of 5 was measured at 1 µM. Data are mean values ± SEM of 3 independent experiments. • Figure 3: Effects of low nM concentrations of N-alkylamide 7 on FAAH activity alone and in combination with the FAAH inhibitor URB597. […] Data are mean values ± SEM of 3 independent experiments. • Figure 4: 1 and 9 inhibit LPS-induced TNF-alpha release into culture medium (measured by ELISA). Human macrophages (10^6 cells) were stimulated with LPS (500 ng/ml) and treated with UCM707 and/or compounds 1 and 9 at 5 µM for 18 h. N = 3 ± SEM. • Figure 5: UCM707 (positive control) and compounds 1 and 9 diminish NO2^- production. Human macrophages (10^6 cells) were stimulated with LPS (500 ng/ml) and treated with UCM707 and/or compounds 1 and 9 at 5 µM for 18 h. Culture supernatants were assayed for nitrite levels, using the Griess reagent as a reflection of NO production. Results are the mean ± SEM of four independent experiments performed in duplicate • Figure 6: In CB receptor expressing human HaCaT keratinocytes (10^6 cells) UCM707 (control) 1 and 9 like the endocannabinoid anandamide (each 5 µM) inhibited tolerogen (10 µg/ml) induced chemokine IL-8 (6h stimulation and incubation). N = 3 ± SEM.

[4] = target: CB2 (Homo sapiens, UniProt P34972); assay: Radioligand displacement assay on CB2 receptor; assay type: binding; design: purchased Perkin Elmer RBXCB2M
CB2, sequence (P34972 whole entry): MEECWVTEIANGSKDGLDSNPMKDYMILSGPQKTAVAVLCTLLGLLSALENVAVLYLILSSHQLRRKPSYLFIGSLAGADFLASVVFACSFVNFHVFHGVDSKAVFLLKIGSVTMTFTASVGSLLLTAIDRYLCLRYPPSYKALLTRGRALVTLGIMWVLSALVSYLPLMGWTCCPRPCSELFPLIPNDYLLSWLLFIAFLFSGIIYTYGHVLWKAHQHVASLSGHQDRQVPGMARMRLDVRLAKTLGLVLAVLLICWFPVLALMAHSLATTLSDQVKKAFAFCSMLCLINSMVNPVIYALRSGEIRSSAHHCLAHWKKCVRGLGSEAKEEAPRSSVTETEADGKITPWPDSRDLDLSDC

T1 sequence (P21554 whole entry): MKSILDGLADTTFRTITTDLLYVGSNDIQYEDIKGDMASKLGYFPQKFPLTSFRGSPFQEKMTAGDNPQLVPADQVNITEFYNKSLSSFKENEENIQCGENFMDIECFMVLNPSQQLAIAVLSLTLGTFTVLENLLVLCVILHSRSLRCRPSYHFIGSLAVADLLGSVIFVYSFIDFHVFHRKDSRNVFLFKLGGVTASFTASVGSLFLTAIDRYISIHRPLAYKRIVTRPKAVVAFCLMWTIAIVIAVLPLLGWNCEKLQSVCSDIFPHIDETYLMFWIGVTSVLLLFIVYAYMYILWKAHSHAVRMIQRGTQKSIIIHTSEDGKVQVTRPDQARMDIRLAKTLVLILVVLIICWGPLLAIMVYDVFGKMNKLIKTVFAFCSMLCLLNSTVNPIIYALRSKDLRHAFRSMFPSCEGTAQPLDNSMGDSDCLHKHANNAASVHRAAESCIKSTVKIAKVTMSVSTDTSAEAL

Row | SMILES | Ki [1] [µM] | AEAT inhibition at 1 µM [2] | NO2^- production [3] | Ki [4] [µM] | Ki ([4]; displacement of 0.11 nM [3H]CP55,940, membrane recombinantly over-expressing CB2, read-out: Receptor affinity Ki CB2) [µM]
1 | CCCCCCC/C=C/C=C/C(=O)NCCO [Example 1, (2E,4E)-N-(2-hydroxyethyl)dodeca-2,4-diene amide] | > 20 | 28 % of control | diminish | > 20 | 
2 | CCCCCCC/C=C/C=C/C(=O)NCCc1cccc(OC)c1 [Example 9, (2E,4E)-N-(3-methoxyphenethyl)dodeca-2,4-diene amide] | > 20 | 34 % of control | diminish |  | 9.44 ± 0.889

Reference: patent publication EP2435019B1, “DODECA-2E,4E-DIENE AMIDES AND THEIR USE AS MEDICAMENTS AND COSMETICS” (Dr. August Wolff GmbH & Co. KG Arzneimittel, priority 2009, dated 2010)
